# Reference: ChEMBL document CHEMBL5356977, “Exploration of macrocyclic peptide binders to the extracellular CRD domain of human receptor tyrosine kinase-like orphan receptor 1 (ROR1)” (Bioorg Med Chem Lett, 2024)
# Activity calls are given as the source filed them. The rule behind the calls is not given here. Numbered stars: 1 amine (or outer) side, 2 acyl side, 3 side chain; on linkers, the order of the positions; unused ones are H or OH. Bridge positions count the residues as written; N and C are the ends. Square brackets hold non-standard residues; d marks the D form. Peptide text beside a SMILES is read from it. * marks the point of attachment. X2 = CCCN(C(=O)[C@@H](NC(=O)[C@H]1CCCCN1C)[C@@H](C)CC)[C@H](C[C@@H](OC(C)=O)c1nc(C(=O)N[C@@H](Cc2ccc(NC(=O)[C@H](CCCNC(N)=O)NC(=O)[C@@H](NC(=O)CCCCCN3C(=O)CC(*)C3=O)C(C)C)cc2)C[C@H](C)C(=O)O)cs1)C(C)C; Bip = N[C@@H](Cc1ccc(-c2ccccc2)cc1)C(=O)O; X1 = CN([C@@H](CC(N)O)C(=O)[*:2])[*:1]; NMeF = CN[C@@H](Cc1ccccc1)C(=O)O; Hpg = N[C@H](C(=O)O)c1ccc(O)cc1; Sar = CNCC(=O)O
# Columns and labels:
# [1] = target: T1, Inactive tyrosine-protein kinase transmembrane receptor ROR1 (Homo sapiens, UniProt Q01973); experiment: Induction of ROR1 internalization in human 786-0; type: cell-based
# T1 sequence (Q01973 whole entry): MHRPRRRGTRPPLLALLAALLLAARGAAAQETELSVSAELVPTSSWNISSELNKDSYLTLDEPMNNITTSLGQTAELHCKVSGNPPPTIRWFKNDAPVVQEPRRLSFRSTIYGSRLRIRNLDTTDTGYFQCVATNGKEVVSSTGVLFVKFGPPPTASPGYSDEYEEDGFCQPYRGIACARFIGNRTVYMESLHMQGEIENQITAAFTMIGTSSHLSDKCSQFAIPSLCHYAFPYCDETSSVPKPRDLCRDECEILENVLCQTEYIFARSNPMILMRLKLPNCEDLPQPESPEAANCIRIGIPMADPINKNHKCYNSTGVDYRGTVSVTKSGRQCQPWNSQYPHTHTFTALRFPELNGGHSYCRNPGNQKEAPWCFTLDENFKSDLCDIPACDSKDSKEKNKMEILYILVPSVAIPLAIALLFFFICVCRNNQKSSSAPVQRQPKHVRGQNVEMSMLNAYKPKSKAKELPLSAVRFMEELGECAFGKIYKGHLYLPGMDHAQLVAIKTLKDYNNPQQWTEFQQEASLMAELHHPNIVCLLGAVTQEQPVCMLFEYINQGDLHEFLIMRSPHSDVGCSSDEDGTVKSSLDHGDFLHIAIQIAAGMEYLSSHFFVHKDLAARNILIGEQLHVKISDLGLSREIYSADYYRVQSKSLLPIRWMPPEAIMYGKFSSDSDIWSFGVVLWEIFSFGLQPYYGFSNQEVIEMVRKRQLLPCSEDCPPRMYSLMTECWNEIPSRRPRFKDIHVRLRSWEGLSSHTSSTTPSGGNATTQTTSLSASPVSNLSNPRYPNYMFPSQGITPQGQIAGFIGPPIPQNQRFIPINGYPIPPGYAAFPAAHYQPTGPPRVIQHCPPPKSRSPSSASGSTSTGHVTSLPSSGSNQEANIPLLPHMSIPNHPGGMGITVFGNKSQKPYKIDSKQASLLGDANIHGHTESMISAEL
# [2] = target: Tyrosine-protein kinase transmembrane receptor ROR2 (Homo sapiens, UniProt Q01974); experiment: Binding affinity to full length human His-tagged ROR2 (943 residues ) assessed as dissociation constant by SPR analysis
# Chain of Tyrosine-protein kinase transmembrane receptor ROR2 (Q01974 whole entry): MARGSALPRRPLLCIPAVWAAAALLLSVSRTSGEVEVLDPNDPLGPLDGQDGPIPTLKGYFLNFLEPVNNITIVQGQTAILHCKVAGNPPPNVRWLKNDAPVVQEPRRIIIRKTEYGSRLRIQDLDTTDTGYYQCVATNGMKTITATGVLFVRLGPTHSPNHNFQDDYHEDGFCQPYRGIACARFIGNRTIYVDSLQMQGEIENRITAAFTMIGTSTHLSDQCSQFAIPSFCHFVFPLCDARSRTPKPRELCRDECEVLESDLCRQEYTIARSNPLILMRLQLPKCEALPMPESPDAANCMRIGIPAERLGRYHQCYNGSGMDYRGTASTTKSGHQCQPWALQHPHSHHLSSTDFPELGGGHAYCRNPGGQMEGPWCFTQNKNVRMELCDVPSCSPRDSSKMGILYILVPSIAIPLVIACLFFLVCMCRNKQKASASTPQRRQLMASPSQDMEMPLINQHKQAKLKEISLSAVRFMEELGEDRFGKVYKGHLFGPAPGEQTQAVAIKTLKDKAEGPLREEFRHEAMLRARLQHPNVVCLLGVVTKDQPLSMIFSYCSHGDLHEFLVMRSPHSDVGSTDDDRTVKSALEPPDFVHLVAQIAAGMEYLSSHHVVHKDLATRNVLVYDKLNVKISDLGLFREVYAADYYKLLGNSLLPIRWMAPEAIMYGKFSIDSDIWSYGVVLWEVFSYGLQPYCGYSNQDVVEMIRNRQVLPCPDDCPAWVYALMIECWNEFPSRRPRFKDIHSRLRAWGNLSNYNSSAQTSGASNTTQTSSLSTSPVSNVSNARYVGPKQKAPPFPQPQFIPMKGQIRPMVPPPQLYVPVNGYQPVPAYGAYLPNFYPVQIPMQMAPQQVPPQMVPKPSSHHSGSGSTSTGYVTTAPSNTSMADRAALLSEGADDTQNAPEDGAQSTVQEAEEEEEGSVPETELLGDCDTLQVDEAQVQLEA
# [3] = target: T1, Inactive tyrosine-protein kinase transmembrane receptor ROR1; experiment: Induction of ROR1 internalization in human MIA PaCa-2; type: cell-based
# [4] = target: T1, Inactive tyrosine-protein kinase transmembrane receptor ROR1; experiment: Binding affinity to full length human His-tagged ROR1 (937 residues ) assessed as dissociation constant by SPR analysis
# [5] = target: T1, Inactive tyrosine-protein kinase transmembrane receptor ROR1; experiment: Binding affinity to human ROR1 harbouring IGt2 domain at 100 nM relative to control
# [6] = target: T1, Inactive tyrosine-protein kinase transmembrane receptor ROR1; experiment: Binding affinity to ROR1 (unknown origin)
# [7] = target: T1, Inactive tyrosine-protein kinase transmembrane receptor ROR1; experiment: Binding affinity to human ROR1 harbouring CRD domain at 100 nM relative to control
# [8] = target: T1, Inactive tyrosine-protein kinase transmembrane receptor ROR1; experiment: Induction of ROR1 internalization in human 786-0 cells at 4 to 37 degreeC; type: cell-based
# [9] = target: T1, Inactive tyrosine-protein kinase transmembrane receptor ROR1; experiment: Binding affinity to human ROR1 expressed in HEK293 cells by cell based assay
# MIA PaCa-2 = experiment: Induction of apoptosis in human MIA PaCa-2 cells assessed as activation of caspase3/7; type: functional, cell-based
# [10] = […] stability in mouse serum assessed as half life; type: ADME, cell-free
# [11] = Proteolytic stability in mouse serum assessed as half life; type: ADME, cell-free
# [12] = target: T1, Inactive tyrosine-protein kinase transmembrane receptor ROR1; experiment: Induction of ROR1 internalization in human MDA-MB-231; type: cell-based
# JeKo-1 = experiment: Antiproliferative activity in human JeKo-1 cells; type: functional, cell-based
# HEK293 = experiment: Antiproliferative activity in HEK293 cells harbouring ROR1; type: toxicity, cell-based; conditions: Homo sapiens
# 786-0 = experiment: Antiproliferative activity in human 786-0 cells; type: functional, cell-based
# ASPC1 = experiment: Antiproliferative activity in human ASPC1 cells; type: functional, cell-based
# [13] = Stability in human serum assessed as half life; type: ADME, cell-free
# [14] = Stability in mouse serum assessed as half life; type: ADME, cell-free
structure (smiles),measurement,setting,value
CC(C)C[C@@H]1NC(=O)[C@H](Cc2ccc(O)cc2)NC(=O)[C@H](Cc2ccccc2)NC(=O)CSC[C@@H](C(=O)NCC(=O)NCC(=O)NCC(=O)N[C@H](CCCCNC(=O)c2ccc3c(c2)C(=O)OC32c3ccc(O)cc3Oc3cc(O)ccc32)C(N)=O)NC(=O)[C@H](CC(C)C)NC(=O)[C@H](Cc2ccccc2)N(C)C(=O)[C@H](Cc2ccc(O)cc2)NC(=O)[C@H](Cc2c[nH]c3ccccc23)NC(=O)CNC(=O)[C@H](CO)NC(=O)[C@H](Cc2ccc(O)cc2)NC(=O)[C@H](C(C)C)NC1=O,Activity,[1],inactive
same,Kd,[2],> 100 nM
same,Activity,[3],inactive
same,Kd,[4],34 nM
CC(C)C[C@@H]1NC(=O)[C@H](CC(N)O)N(C)C(=O)[C@H](Cc2ccccc2)NC(=O)CNC(=O)[C@H](Cc2ccc(O)cc2)NC(=O)[C@H](Cc2ccccc2)NC(=O)CSC[C@@H](C(N)=O)NC(=O)[C@H](Cc2c[nH]c3ccccc23)NC(=O)[C@H](Cc2ccc(O)cc2)NC1=O (some centres not stated) ({CH2CO}-FYGF[X1]LYWC-NH2; thioether N-9),Activity,[5],75%
same,Kd,[2],> 11 nM
same,IC50,[6],66 nM
same,Activity,[7],125%
same,Kd,[4],22 nM
same,Activity,[8],Active
CC(C)C[C@@H]1NC(=O)[C@H](Cc2ccc(O)cc2)NC(=O)[C@H](Cc2ccccc2)NC(=O)CSC[C@@H](C(=O)NCC(N)=O)NC(=O)[C@H](CC(C)C)NC(=O)[C@H](Cc2ccccc2)N(C)C(=O)[C@H](Cc2ccc(O)cc2)NC(=O)[C@H](Cc2c[nH]c3ccccc23)NC(=O)CNC(=O)[C@H](CO)NC(=O)[C@H](Cc2ccc(O)cc2)NC(=O)[C@H](C)NC1=O ({CH2CO}-FYLAYSGWY[NMeF]LCG-NH2; thioether N-12),IC50,[9],12.3 nM
CC(C)C[C@@H]1NC(=O)[C@H](Cc2ccc(O)cc2)NC(=O)[C@H](Cc2ccccc2)NC(=O)CSC[C@@H](C(=O)NCC(N)=O)NC(=O)[C@H](CC(C)C)NC(=O)[C@H](Cc2ccccc2)N(C)C(=O)[C@H](Cc2ccc(O)cc2)NC(=O)[C@H](Cc2c[nH]c3ccccc23)NC(=O)CNC(=O)[C@H](CC(=O)O)NC(=O)[C@H](Cc2ccc(O)cc2)NC(=O)[C@H](C(C)C)NC1=O ({CH2CO}-FYLVYDGWY[NMeF]LCG-NH2; thioether N-12),IC50,[9],14.4 nM
CC(C)C[C@@H]1NC(=O)[C@H](Cc2ccc(O)cc2)NC(=O)[C@H](Cc2ccccc2)NC(=O)CSC[C@@H](C(=O)NCC(N)=O)NC(=O)[C@H](C(C)C)NC(=O)[C@H](Cc2ccccc2)N(C)C(=O)[C@H](c2ccc(O)cc2)NC(=O)[C@H](Cc2c[nH]c3ccccc23)NC(=O)CNC(=O)[C@H](CC(N)=O)NC(=O)[C@H](Cc2ccc(O)cc2)NC(=O)[C@H](C(C)C)NC1=O ({CH2CO}-FYLVYNGW[Hpg][NMeF]VCG-NH2; thioether N-12),IC50,[9],5.3 nM
CC(C)C[C@@H]1NC(=O)[C@H](Cc2ccc(O)cc2)NC(=O)[C@H](Cc2ccccc2)NC(=O)CSC[C@@H](C(=O)NCC(N)=O)NC(=O)[C@H](CC(C)C)NC(=O)[C@H](Cc2ccccc2)N(C)C(=O)[C@H](Cc2ccc(O)cc2)NC(=O)[C@H](Cc2c[nH]c3ccccc23)NC(=O)CNC(=O)[C@H](CCC(N)=O)NC(=O)[C@H](Cc2ccc(O)cc2)NC(=O)[C@H](C(C)C)NC1=O ({CH2CO}-FYLVYQGWY[NMeF]LCG-NH2; thioether N-12),IC50,[9],7.2 nM
CC(C)C[C@@H]1NC(=O)[C@H](Cc2ccc(O)cc2)NC(=O)[C@H](Cc2ccccc2)NC(=O)CSC[C@@H](C(N)=O)NC(=O)[C@H](CC(C)C)NC(=O)[C@H](Cc2ccccc2)N(C)C(=O)[C@H](Cc2ccc(O)cc2)NC(=O)[C@H](Cc2c[nH]c3ccccc23)NC(=O)CNC(=O)[C@H](CO)NC(=O)[C@H](Cc2ccc(O)cc2)NC(=O)[C@H](C(C)C)NC1=O ({CH2CO}-FYLVYSGWY[NMeF]LC-NH2; thioether N-12),IC50,[9],7.2 nM
CC(C)C[C@@H]1NC(=O)[C@H](Cc2ccc(O)cc2)NC(=O)[C@H](Cc2ccccc2)NC(=O)CSC[C@@H](C(=O)NCC(N)=O)NC(=O)[C@H](CC(C)C)NC(=O)[C@H](Cc2ccccc2)N(C)C(=O)[C@H](Cc2ccc(O)cc2)NC(=O)[C@H](Cc2c[nH]c3ccccc23)NC(=O)CNC(=O)[C@H](CO)NC(=O)[C@H](Cc2ccc(O)cc2)NC(=O)[C@H](C(C)C)NC1=O ({CH2CO}-FYLVYSGWY[NMeF]LCG-NH2; thioether N-12),Activity,MIA PaCa-2,inactive
same,half-life,[10],> 24 h
same,Activity,[5],68%
same,Activity,[1],Active
same,half-life,[11],> 24 h
same,Activity,[12],Active
same,Kd,[2],43 nM
same,Activity,[7],104%
same,Activity,[8],Active
CC(C)C[C@@H]1NC(=O)[C@H](Cc2ccc(O)cc2)NC(=O)[C@H](Cc2ccccc2)NC(=O)CSC[C@@H](C(=O)NCC(=O)NCC(=O)NCC(=O)NCC(=O)O)NC(=O)[C@H](CC(C)C)NC(=O)[C@H](Cc2ccccc2)N(C)C(=O)[C@H](Cc2ccc(O)cc2)NC(=O)[C@H](Cc2c[nH]c3ccccc23)NC(=O)CNC(=O)[C@H](CO)NC(=O)[C@H](Cc2ccc(O)cc2)NC(=O)[C@H](C(C)C)NC1=O ({CH2CO}-FYLVYSGWY[NMeF]LCGGGG-OH; thioether N-12),EC50,JeKo-1,89 nM
same,EC50,HEK293,55.3 nM
same,EC50,786-0,63.7 nM
same,EC50,ASPC1,76.6 nM
CCCN(C(=O)[C@@H](NC(=O)[C@H]1CCCCN1C)[C@@H](C)CC)[C@H](C[C@@H](OC(C)=O)c1nc(C(=O)N[C@@H](Cc2ccc(NC(=O)[C@H](CCCNC(N)=O)NC(=O)[C@@H](NC(=O)CCCCCN3C(=O)CC(SC[C@H](NC(=O)CNC(=O)CNC(=O)CNC(=O)CNC(=O)[C@@H]4CSCC(=O)N[C@@H](Cc5ccccc5)C(=O)N[C@@H](Cc5ccc(O)cc5)C(=O)N[C@@H](CC(C)C)C(=O)N[C@@H](C(C)C)C(=O)N[C@@H](Cc5ccc(O)cc5)C(=O)N[C@@H](CO)C(=O)NCC(=O)N[C@@H](Cc5c[nH]c6ccccc56)C(=O)N[C@@H](Cc5ccc(O)cc5)C(=O)N(C)[C@@H](Cc5ccccc5)C(=O)N[C@@H](CC(C)C)C(=O)N4)C(N)=O)C3=O)C(C)C)cc2)C[C@H](C)C(=O)O)cs1)C(C)C (some centres not stated) ({CH2CO}-FYLVYSGWY[NMeF]LCGGGGC(X2)-NH2; thioether N-12),EC50,JeKo-1,334 nM
same,EC50,HEK293,27.3 nM
same,EC50,786-0,154 nM
same,EC50,ASPC1,145 nM
CC(C)C[C@@H]1NC(=O)[C@H](Cc2ccc(O)cc2)NC(=O)[C@H](Cc2ccccc2)NC(=O)CSC[C@@H](C(=O)NCC(N)=O)NC(=O)[C@H](CC(C)C)NC(=O)[C@H](Cc2ccccc2)N(C)C(=O)[C@H](Cc2ccc(O)cc2)NC(=O)[C@H](Cc2c[nH]c3ccccc23)NC(=O)CNC(=O)[C@H](Cc2ccc(O)cc2)NC(=O)[C@H](Cc2ccc(O)cc2)NC(=O)[C@H](C(C)C)NC1=O ({CH2CO}-FYLVYYGWY[NMeF]LCG-NH2; thioether N-12),IC50,[9],8.6 nM
CC(C)C[C@@H]1NC(=O)[C@H](Cc2ccccc2)N(C)C(=O)[C@H](Cc2ccc(O)cc2)NC(=O)[C@H](Cc2c[nH]c3ccccc23)NC(=O)CNC(=O)[C@H](CO)NC(=O)[C@H](Cc2ccc(O)cc2)NC(=O)[C@H](C(C)C)NC(=O)[C@@H]2CCCN2C(=O)[C@H](Cc2ccc(O)cc2)NC(=O)[C@H](Cc2ccccc2)NC(=O)CSC[C@@H](C(=O)NCC(N)=O)NC1=O ({CH2CO}-FYPVYSGWY[NMeF]LCG-NH2; thioether N-12),IC50,[9],5.2 nM
CC(C)C[C@@H]1NC(=O)[C@H](Cc2ccccc2)N(C)C(=O)[C@H](Cc2ccc(O)cc2)NC(=O)[C@H](Cc2c[nH]c3ccccc23)NC(=O)CNC(=O)[C@H](CO)NC(=O)[C@H](Cc2ccc(O)cc2)NC(=O)[C@H](C(C)C)NC(=O)[C@H](CCCNC(=N)N)NC(=O)[C@H](Cc2ccc(O)cc2)NC(=O)[C@H](Cc2ccccc2)NC(=O)CSC[C@@H](C(=O)NCC(N)=O)NC1=O ({CH2CO}-FYRVYSGWY[NMeF]LCG-NH2; thioether N-12),IC50,[9],6.3 nM
CN1CC(=O)N[C@@H](CO)C(=O)N[C@@H](Cc2ccc(-c3ccccc3)cc2)C(=O)NCC(=O)N[C@@H](CCCNC(=N)N)C(=O)N[C@@H](CCCNC(=N)N)C(=O)N[C@@H](CCCNC(=N)N)C(=O)NCC(=O)N[C@H](C(=O)NCC(N)=O)CSCC(=O)N[C@@H](Cc2ccccc2)C(=O)N[C@@H](Cc2ccc(O)cc2)C1=O ({CH2CO}-FY[Sar]S[Bip]GRRRGCG-NH2; thioether N-11),half-life,[10],24 h
same,Activity,[5],125%
same,half-life,[13],1.1 h
same,Kd,[2],> 100 nM
same,Activity,[7],114%
same,Kd,[4],3 nM
same,half-life,[14],0.517 h
same,Activity,[8],inactive
CC(C)C[C@@H]1NC(=O)[C@H](Cc2ccc(O)cc2)NC(=O)[C@H](Cc2c[nH]c3ccccc23)NC(=O)CSC[C@@H](C(=O)NCC(N)=O)NC(=O)[C@H](CC(C)C)NC(=O)[C@H](Cc2ccccc2)N(C)C(=O)[C@H](Cc2ccc(O)cc2)NC(=O)[C@H](Cc2c[nH]c3ccccc23)NC(=O)CNC(=O)[C@H](CO)NC(=O)[C@H](Cc2ccc(O)cc2)NC(=O)[C@H](C(C)C)NC1=O ({CH2CO}-WYLVYSGWY[NMeF]LCG-NH2; thioether N-12),Activity,[1],Active
same,Activity,[12],Active
same,IC50,[9],2.2 nM
CC[C@H](C)[C@H](NC(=O)[C@H]1CCCCN1C)C(=O)N(COC(=O)CC(C)C)[C@H](C[C@@H](OC(C)=O)c1nc(C(=O)N[C@@H](Cc2ccc(C)cc2)C[C@H](C)C(=O)O)cs1)C(C)C [TUBULYSIN],EC50,786-0,0.57 nM
